From patent US5179100A, “4,5-dihydropyrazolo[3,4-a]acridines” (Hoechst-Roussel Pharmaceuticals inc., priority 1992, dated 1993)
Counter-ions that a name gives are not always drawn.

test system: 2-phenyl-1,4-benzoquinone-induced writhing in mice; experiment: 2-phenyl-1,4-benzoquinone-induced writhing test in mice (PQW Activity), analgesia; type: in vivo; conditions: 33 mg/kg, s.c. (reference compound)
Procedure: Exptl. […] The tests were conducted at the subcutaneous dose of 20 mg/kg.

Row | SMILES | PQW Activity, % Inhibition [%]
1 | CC(=O)Oc1ccccc1C(=O)O [Aspirin, reference compound] | 50

same assay, conditions: subcutaneous, 20 mg/kg

Row | SMILES | PQW Activity, % Inhibition [%]
2 | Cn1cc2c(n1)-c1c(nc3ccccc3c1N)CC2 [11-Amino-4,5-dihydro-2-methyl-2H-pyrazolo[3,4-a]acridine] | 54
3 | Nc1c2c(nc3ccccc13)CCc1cnn(-c3ccccc3)c1-2 [11-Amino-4,5-dihydro-1-phenyl-1H-pyrazolo[3,4-a]acridine] | 48
4 | CCn1cc2c(n1)-c1c(nc3ccccc3c1N)CC2 [11-Amino-4,5-dihydro-2-ethyl-2H-pyrazolo[3,4-a]acridine] | 67
5 | Nc1c2c(nc3ccccc13)CCc1cn(CC(=O)O)nc1-2 [11-Amino-4,5-dihydro-2H-pyrazolo[3,4-a]acridine-2-acetic acid hydrochloride hemihydrate] | 58
6 | CN(C)CCn1cc2c(n1)-c1c(nc3ccccc3c1N)CC2 [11-Amino-4,5-dihydro-2-(2-dimethylaminoethyl)-2H-pyrazolo [3,4-a]acridine] | 59
7 | N#CCn1cc2c(n1)-c1c(nc3ccccc3c1N)CC2 [11-Amino-4,5-dihydro-2H-pyrazolo[3,4-a]acridine-2-acetonitrile] | 47
